Measurements published in patent US6380387B1, “4-Pyrimidinyl-n-acyl-l phenylalanines” (Hoffmann-La Roche Inc., priority 1999, dated 2002).

Columns and labels:
alpha4-beta7 = molecular target: T1, alpha4-beta7 (Homo sapiens, UniProt P13612+P26010); assay: Alpha4-Beta7 Assay (MadCAM/RPMI 8866 cell adhesion); type: cell-based; settings: calcein labeled RPMI 8866 cells adhering to immobilized MadCAM
T1 construct: Sufficient RPMI 8866 cells were removed from stock for assay; endogenous in cells; host or cells: RPMI 8866 cells
T1 sequence (P13612 34-1032): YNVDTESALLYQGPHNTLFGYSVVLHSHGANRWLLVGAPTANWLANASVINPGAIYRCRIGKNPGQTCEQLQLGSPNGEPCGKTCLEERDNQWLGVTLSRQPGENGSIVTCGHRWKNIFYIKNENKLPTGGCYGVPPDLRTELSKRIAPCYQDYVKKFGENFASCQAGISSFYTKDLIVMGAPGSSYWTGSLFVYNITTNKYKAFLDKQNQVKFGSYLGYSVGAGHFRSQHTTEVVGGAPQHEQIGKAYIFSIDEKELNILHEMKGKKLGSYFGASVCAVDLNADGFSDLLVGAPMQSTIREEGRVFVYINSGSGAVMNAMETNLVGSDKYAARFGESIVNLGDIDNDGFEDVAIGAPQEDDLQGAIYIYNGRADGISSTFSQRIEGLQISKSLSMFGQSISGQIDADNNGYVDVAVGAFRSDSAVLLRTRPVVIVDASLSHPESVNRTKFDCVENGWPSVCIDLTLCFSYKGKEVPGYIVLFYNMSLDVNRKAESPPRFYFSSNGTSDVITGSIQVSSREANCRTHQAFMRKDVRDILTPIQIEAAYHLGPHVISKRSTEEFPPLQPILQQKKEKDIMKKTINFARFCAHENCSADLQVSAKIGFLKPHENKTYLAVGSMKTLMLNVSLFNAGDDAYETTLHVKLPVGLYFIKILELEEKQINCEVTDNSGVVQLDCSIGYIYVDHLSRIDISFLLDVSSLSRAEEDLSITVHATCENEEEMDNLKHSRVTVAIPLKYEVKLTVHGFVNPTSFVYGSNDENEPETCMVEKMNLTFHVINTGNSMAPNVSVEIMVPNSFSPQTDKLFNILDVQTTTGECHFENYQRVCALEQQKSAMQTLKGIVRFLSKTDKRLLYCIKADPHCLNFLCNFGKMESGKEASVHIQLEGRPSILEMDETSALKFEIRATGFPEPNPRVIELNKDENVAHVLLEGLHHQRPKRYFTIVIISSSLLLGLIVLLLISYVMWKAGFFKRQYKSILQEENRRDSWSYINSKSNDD
T1 sequence (P26010 20-798): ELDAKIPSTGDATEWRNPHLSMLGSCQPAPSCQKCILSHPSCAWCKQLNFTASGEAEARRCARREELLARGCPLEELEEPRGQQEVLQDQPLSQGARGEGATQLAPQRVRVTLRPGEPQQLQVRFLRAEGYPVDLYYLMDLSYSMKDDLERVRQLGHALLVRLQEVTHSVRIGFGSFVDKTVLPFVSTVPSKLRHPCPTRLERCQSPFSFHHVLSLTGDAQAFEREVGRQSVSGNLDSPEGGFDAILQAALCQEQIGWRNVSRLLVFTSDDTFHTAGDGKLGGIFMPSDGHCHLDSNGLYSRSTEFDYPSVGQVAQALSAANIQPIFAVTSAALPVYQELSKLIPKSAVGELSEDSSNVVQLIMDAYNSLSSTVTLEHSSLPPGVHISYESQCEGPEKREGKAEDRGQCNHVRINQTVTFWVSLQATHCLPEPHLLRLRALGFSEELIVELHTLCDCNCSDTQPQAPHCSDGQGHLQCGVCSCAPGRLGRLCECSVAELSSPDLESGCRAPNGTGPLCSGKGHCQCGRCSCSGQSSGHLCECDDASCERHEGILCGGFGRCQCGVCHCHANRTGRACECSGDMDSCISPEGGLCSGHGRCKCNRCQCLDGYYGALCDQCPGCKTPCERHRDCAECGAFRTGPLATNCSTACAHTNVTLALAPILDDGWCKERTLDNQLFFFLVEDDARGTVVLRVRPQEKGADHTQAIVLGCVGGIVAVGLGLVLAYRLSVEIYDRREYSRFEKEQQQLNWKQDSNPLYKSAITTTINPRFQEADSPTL
Protocol: Alpha4-Beta7 Assay Protocol
Two weeks to one day prior to the assay, Nunc high-binding F96 Maxisorp immuno plates, #442404 or #439454, were coated with 25 ng/well (0.25 μg/ml) MadCAM in a volume of 100 μl/well. The plates were covered with sealer and wrapped in saran wrap followed by incubation in the refrigerator for at least 24 hours. The coating buffer employed was: 10 mM carbonate/bicarbonate buffer made up from: 0.8 g/L sodium carbonate and 1.55 g/L sodium bicarbonate adjusted to pH 9.6 with 1 N HCl. Assay buffers consisted of the following:
Plates were washed 2× with wash buffer and then blocked at room temperature for at least 1 hour with Blocking Buffer. Sealed plates were sometimes blocked overnight in the refrigerator. Plates were then washed with PBS and hand blotted dry. Remaining liquid was aspirated from the wells.
Sufficient RPMI 8866 cells were removed from stock for assay (2×10^6 cells/ml×10 ml/plate×number of plates) and placed in a centrifuge tube. The tubes were filled to volume with PBS and were spun at 200×G for 8 minutes. The buffer was poured off and the cells were resuspended to 10×10^6/ml in PBS and a stock solution of calcein in DMSO (5mg/mL) was added at 51 μl/ml of cell suspension. The suspension was incubated for 30 minutes at 37° C. in dark. The cells were then washed with PBS. The PBS was poured off and the cells resuspended in cell buffer at a concentration of 2×10^6 cells/mL for plating in the assay.
Stock solution of test compounds at 25× first dilution desired in 100% DMSO were prepared. First dilutions for the standard, as well as test compounds, were 1:25 into straight Binding Buffer, while the remaining serial dilutions were into Dilution Buffer (Binding Buffer/4% DMSO). Stock concentrations and dilutions of compounds for screening were determined by anticipated activity.
For the assay, 129 μl Binding Buffer was plated into first row of wells and 100 μl Dilution Buffer was plated into remaining wells. A 5.44 μl aliquot of each compound was pipetted into appropriate, labeled wells, in triplicate. The compounds were next diluted down the plate (34 μl+100 μl=>4-fold dilution). For controls, 100 μl of Dilution Buffer 100 μl Cell Buffer were plated into the nonspecific background wells (no cells, no compound) and 100 μl Dilution Buffer+100 μl cells were plated into the total binding wells (no compound=100% binding). Labeled cells at 2×10^6 cells/ml, 100 μl/well (=2×10^5 cells/well) were added to each well containing compound. The plates were sealed and incubated in the dark for 45 minutes at room temperature. Following incubation, unbound cells were removed by adding 150 μl PBS/well. The plates were inverted, blotted onto paper towels and washed by gently adding 200 μl PBS to wells and blotting again. Remaining buffer was carefully aspirated from the wells. A final 100 μl PBS was added to each well.
The plates were then read for fluorescence intensity on a Cytofluor 2300 (Millipore) fluorecence measurement system (excitation=485 nm, emission=530 nm). IC50s of each compound were determined by linear regression analysis.

Compound	melting point [°C]	IC50 (alpha4-beta7) [µM]
Cn1c(C(F)(F)F)c(-c2ccc(C[C@H](NC(=O)c3c(Cl)cccc3Cl)C(=O)O)cc2)c(=O)n(C)c1=O [Example 21, N-[1-(2,6-dichlorophenyl)carbonyl]-4-(1,3-dimethyl-2,4-dioxo-6-(trifluoromethyl)-5-pyrimidinyl)-L-phenylalanine]	125 to 128	< 10
Cc1cccc(Cl)c1C(=O)N[C@@H](Cc1ccc(-c2c(C(F)(F)F)n(C)c(=O)n(C)c2=O)cc1)C(=O)O [Example 22, N-[(2-chloro-6-methylphenyl)carbonyl]-4-[1,3-dimethyl-2,4-dioxo-6-(trifluoromethyl)-5-pyrimidinyl]-L-phenylalanine]	243 to 247	< 10
Cn1c(C(F)(F)F)c(-c2ccc(C[C@H](NC(=O)c3c(F)cccc3C(F)(F)F)C(=O)O)cc2)c(=O)n(C)c1=O [Example 23, N-[[2-fluoro-6-(trifluoromethyl)phenyl]carbonyl]-4-(1,3-dimethyl-2,4-dioxo-6-(trifluoromethyl)-5-pyrimidinyl)-L-phenylalanine]	122 to 125	< 10
Cc1cc(C[C@H](NC(=O)c2c(C)cccc2Cl)C(=O)O)ccc1-c1cn(C)c(=O)n(C)c1=O [Example 24, N-[(2-chloro-6-methylphenyl)carbonyl]-4-(1,3-dimethyl-2,4-dioxo-5-pyrimidinyl)-3-methyl-L-phenylalanine]	109 to 111	< 10
